From patent publication EP4178959B1, “NITROGEN HETEROCYCLIC CYTOKININ DERIVATIVES, COMPOSITIONS CONTAINING THESE DERIVATIVES AND USE THEREOF” (Univerzita Palackého v Olomouci, priority 2020, dated 2022)

Legend:
Zea mays seedlings = assay: Effect on development of Zea mays seedlings (hydroponic); type: in vivo, Zea mays cv. CELLUX; details: for Root dry mass (%) [4 x 10^-8 mol.l^-1 Kin = 100%] / Shoot dry mass (%) [10^-6 mol.l^-1 Kin = 100%]: at concentration with highest activity
Experimental: Maize seeds (Zea mays cv. CELLUX) were imbibed in tap water and germinated on a wetted filter paper. After 3 days, the germinated seedlings were transferred to aerated hydroponic tanks filled with Hoagland's nutrient solution. The plants were grown in an environmental chamber with 16 h light period (250 μE m^-2 s^-1) at 27°C and 8 h dark period at 20°C. Tested compounds diluted in DMSO were added to nutrient solution immediately when seedlings were nested in the tanks or after two additional days of cultivation. Control plants were grown in parallel with addition of corresponding amount of DMSO (up to 0.01%). Root and leaf tissues of ten plants were harvested at different time points after the application of the compounds, immediately frozen in liquid nitrogen and used for cytokinin content and transcript level analysis. Length of primary root and the first leaf were determined with ruler on sets of twelve plants, each cultivated in the independent tank (for every cytokinin application repeated ten times). Dry mass of root system and the aerial part was determined after cutting off the kernel and desiccation in dryer for two days at 60°C. […] Fig. 4) and up to 1 micromolar concentration when more seedlings were in the solution (approx. 50 seedlings per 1 liter; Fig. 5). […] Table 7: […]

Arabidopsis thaliana [1] = assay: Effect on the root proliferation of Arabidopsis thaliana; type: in vivo, Arabidopsis thaliana (ecotype Columbia); details: for Concentration with highest activity: number of lateral roots; for Activity (%) [10^-8 mol.l^-1 Kin = 100%]: number of lateral roots (% of control), at concentration with highest activity
Experimental: Arabidopsis thaliana seeds (ecotype Columbia) were sterilized with 70% ethanol and 0.1% Triton X-100 and then washed with 70% ethanol containing 0.01% Triton X-100. Then the seeds were transferred to vertical square petri dishes (11 seeds per dish) on a solid medium consisting of MS (2.15 g/l), MES (0.5 g/l), sucrose (1 g/l), agar (11 g/l), buffered to pH 5.8, and various concentrations of tested compounds. The compounds were dissolved in DMSO, thus 0.05% DMSO was used as a control solution. After incubation for 3 days in darkness at 4°C, the seeds were germinated and grown in an environmental chamber (fluorescence light intensity 150 µE m^-2 s^-1, humidity 55%, 16 h day/8 h night, 22°C). […] The number of lateral roots was scored under a stereomicroscope. […] In addition, compounds with tetrahydropyranyl protection at N9 slightly increase the number of emerged lateral roots (Fig 3C). […] Table 6: […]

Mouse fibroblasts NIH3T3 = assay: Calcein AM cytotoxicity assay, NIH3T3 cells; details: read-out: Cytotoxicity IC50, NIH-3T3; Calcein AM, 72 hours
Procedure, shortened: (§1)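 Compound concentrations tested in duplicate on normal cell lines using Calcein AM viability read-out; cytotoxicity expressed as IC50 (µmol/L).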

[2] = system: mouse immortalized bone marrow macrophages B10A.4; assay: Calcein AM cytotoxicity assay, B10A.4 cells; details: read-out: Cytotoxicity IC50, B10A.4, first column headed B10A.4, 72 hours
Procedure, shortened: as §1

excised wheat leaf tips = assay: Senescence inhibition on winter wheat leaf segments (chlorophyll retention); parameters: species or system Triticum aestivum cv. Hereward; details: for Concentration with highest activity: retention of chlorophyll; for Activity (%) [10^-4mol.l^-1 KTHP = 100%] / Emax: retention of chlorophyll in excised wheat leaf tips, 96 h in the dark, at concentration with highest activity; for Emax: Triticum aestivum, foliar, read-out: Activity (%) [10^-4mol.l^-1 KTHP = 100%]
Procedure, shortened: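 First-leaf tips (~35 mm; five tips, 100 mg) were cut from 7-day wheat seedlings (cv. Hereward; 25 °C, 16/8 h light). Their basal ends stood in compound solutions made from DMSO stock brought to 10^-3 M with water.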

[3] = system: BJ (human foreskin fibroblasts); assay: Calcein AM cytotoxicity assay, BJ cells; details: read-out: Cytotoxicity IC50, BJ; Calcein AM, 72 hours
Procedure, shortened: as §1

[4] = Calcein AM cytotoxicity assay, NIH3T3 cells; details: mouse
Procedure, shortened: as §1

Arabidopsis thaliana [5] = assay: Arabidopsis root growth inhibition test; type: in vivo, Arabidopsis thaliana (ecotype Columbia); details: for Primary root length 7-d, WT = 100%: 7-d-old plants; for root growth inhibition (in words): compared to WT, 7-d-old seedlings
Experimental: Arabidopsis thaliana seeds (ecotype Columbia) were sterilized with 70% ethanol and 0.1% Triton X-100 and then washed 4 times with sterile water. The seeds were transferred to Petri dishes on a solid medium consisting of MS (2.2 g l^-1), sucrose (10 g l^-1), agar (8 g l^-1), and supplemented with cytokinins or DMSO control (0.1% DMSO). After incubation for 3 days in darkness at 4°C, the seeds were germinated and grown horizontally in an environmental chamber at 22/20 °C under an 8 h light (120 µmol photons m^-2 s^-1)/16 h dark cycle for 4 days. 7-d-old seedling were used for measurements of the primary root length. At least 35 plants were used for each treatment and each treatment was repeated in at least 5 individual Petri dishes. The length of the primary root was evaluated using Scion Image software (Scion Corporation, Frederick, MD, USA). All measured parameters were statistically evaluated between untreated and treated plants according to Student's unpaired t-test. […] Tab. Inhibition of the primary root growth in 7-d-old Arabidopsis plants. 100% = WT plants, DMSO treated.

[6] = Calcein AM cytotoxicity assay, B10A.4 cells; details: mouse; for CC50 at 72 h: b10a.4 macrophages
Procedure, shortened: as §1

[7] = Calcein AM cytotoxicity assay, BJ cells; details: human
Procedure, shortened: as §1

[8] = system: sweet peppers, cucumbers and tomatoes; assay: Field trials with vegetables, overall; type: in vivo; details: 10 - 100 nM
Experimental: Besides, plants were treated with a commercial fertilizer (type Kristalon) with optimal ratio of N,P,K and micronutrients. Dosage of 2-fluoro-6-[(3-methoxylbenzyl)amino]-9-(tetrahydro-2H-pyran-2-yl)-9H-purine was in the range between 10 - 100 nM, but usually 50 or 100 nM from re-planting to the end of vegetation once a week 500 ml to each plant (Table 10). The application of the compound was performed 1-3 times per week (according to the cultivation system - field or hydroponic). Stock solution was prepared in the concentration range 1-5 µM, then dosing into hydroponic system, watering with fertilizer, or in concentration […] in final fertilizer for use in soil conditions. Number of replicates was 10 / 12 plants from each variant (including control).
In case of cucumbers, fruit weight harvested per plant varied from 99,6 / 110,0 %, number of fruits were 102,3 / 106,8 % compared to control. Fruit weight from 1 plant varied from 100,0 to 124,7 % and number of fruits varied from 92,9 to 143,2 %, compared to control, after application of the tested compound to sweet peppers. In most trials, the size of fruits increased after the application of the tested compound.

[9] = tested concentration 0.04 µmol.l^-1
[10] = tested concentration 1 µmol.l^-1
[11] = tested concentration 25 µmol.l^-1
[12] = Cytotoxicity IC50, B10A.4, first column headed B10A.4

| SMILES | Root dry mass (%) [4 x 10^-8 mol.l^-1 Kin = 100%] (Zea mays seedlings) | Shoot dry mass (%) [10^-6 mol.l^-1 Kin = 100%] (Zea mays seedlings) | Concentration with highest activity (Zea mays seedlings; root dry mass) | Concentration with highest activity (Zea mays seedlings; shoot dry mass) | Concentration with highest activity (Arabidopsis thaliana [1]) | Activity (%) [10^-8 mol.l^-1 Kin = 100%] (Arabidopsis thaliana [1]) | CC50 (Mouse fibroblasts NIH3T3) [µM] | CC50 [2] [µM] | Concentration with highest activity (excised wheat leaf tips) | Activity (%) [10^-4mol.l^-1 KTHP = 100%] (excised wheat leaf tips) | CC50 [3] [µM] | Primary root length 7-d, WT = 100% (Arabidopsis thaliana [5]; [9]) | Primary root length 7-d, WT = 100% (Arabidopsis thaliana [5]; [10]) | Primary root length 7-d, WT = 100% (Arabidopsis thaliana [5]; [11]) | IC50 at 72 h [4] [µM] | root growth inhibition (in words) (Arabidopsis thaliana [5]) | IC50 at 72 h [6, 12] [µM] | Emax (excised wheat leaf tips) [%] | IC50 at 72 h [7] [µM] | other results |
| --- | --- | --- | --- | --- | --- | --- | --- | --- | --- | --- | --- | --- | --- | --- | --- | --- | --- | --- | --- | --- |
| C/C(=C\CO)CNc1nc(F)nc2c1ncn2C1CCCO1 (centres unmarked) [Compound 6] | 167.2 (± 14) % | 121.2 (± 6) % | 10^-7 mol.1^-1 | 10^-6 mol.1^-1 | 10^-5 mol.l^-1 | 48.5 (± 6) % | > 167 | > 167 | 10^-4 mol.l^-1 | 138.2 (± 17) % | > 167 | – | – | – | – | – | – | – | – | – |
| Oc1cccc(CNc2ncnc3[nH]cnc23)c1 [meta-topolin, reference compound] | – | – | – | – | – | – | – | – | – | – | – | 67.1 (±7.2) % | 33.9 (±2.0) % | 19.3 (±2.3) % | – | – | – | – | – | CC50 at 72 h ([4]; nih3t3 cells): 167 µM; CC50 at 72 h [6, 12]: > 167 µM; CC50 at 72 h ([6]; Cytotoxicity IC50, B10A.4, second column headed B10A.4): 178 µM; CC50 at 72 h ([7]; bj fibroblasts): 166 µM |
| Oc1cccc(CNc2nc(F)nc3c2ncn3C2CCCO2)c1O (centres unmarked) [Compound 29] | – | – | – | – | – | – | > 167 | > 167 | 10^-4 mol.l^-1 | 15 (±5) % | > 167 | – | – | – | – | – | – | – | – | – |
| Oc1cccc(CNc2nc(F)nc3c2ncn3C2CCCCO2)c1 (centres unmarked) [Compound 65, 2-Fluoro-6-[(3-hydroxybenzyl)amino]-9-(tetrahydro-2H-pyran-2-yl)-9H-purine] | 187.3 (± 18) % | 121.6 (± 7) % | 10^-7 mol.1^-1 | 10^-6 mol.1^-1 | 10^-5 mol.l^-1 | 32.6 (± 6) % | – | – | – | – | – | 102.9 (±11.0) % | 40.6 (±2.1) % | 31.3 (±1.8) % | > 167 | did not caused the inhibition of root | > 167 | 128 | > 167 | – |
| COc1cccc(CNc2nc(F)nc3c2ncn3C2CCCCO2)c1 (centres unmarked) [Compound 67, 2-Fluoro-6-[(3-methoxybenzyl)amino]-9-(tetrahydro-2H-pyran-2-yl)-9H-purine] | 261.2 (± 20) % | 127.6 (± 9) % | 10^-7 mol.1^-1 | 10^-6 mol.1^-1 | 10^-5 mol.l^-1 | – | – | – | – | – | – | 96.9 (±2.4) % | 50.3 (±1.1) % | 34.9 (±2.1) % | > 167 | did not cause significant root inhibition | > 167 | 195 | > 167 | effect on cell division and organ growth (in words) (Zea mays seedlings; root system and aerial part of seedlings): Positive effect; effect on elongation of primary root (in words) (Arabidopsis thaliana [1]; MS media, range of concentration 0.04 to 5 µM): does not have negative effect on elongation of primary root; effect on fertility term elongation of vegetables, number of fruits, protection against abiotic stress (in words) [8]: positive effect |
